Results published in ChEMBL document CHEMBL3885861, “Open TG-GATES”.

Species on record: Rattus norvegicus
Assay: Open TG-GATES - Regimen: Single
Format: toxicity, organism-based, Sprague-Dawley
Set-up: regimen Single, gender Male, age 6 weeks
Details: in vivo, iv, 20 mg/kg, route intravenous injection, dose level Middle; for APTT / Bas / Eos / Fbg / Hb / Ht / Lym / MCH / MCHC / MCV / Mono / Neu / PT / Plat / RBC / Ret / WBC: tissue Blood; for KIDNEY_L / KIDNEY_R / KIDNEY_TOTAL: tissue Kidney; for LIVER: tissue Liver; for A/G / ALP / ALT / AST / BUN / CRE / Ca / Cl / DBIL / GLC / IP / K / LDH / Na / PL / RALB / TBIL / TC / TG / TP / gamma-GTP: tissue Plasma

Work on `NCCBr` [BROMOETHANAMINE] yielded a TERMINAL_BW (3 h) of 213.1 g, an APTT (3 h) of 23.3 s and a Bas (3 h) of 0%. For the same compound, the Eos (3 h) was 0.8%, the Fbg (3 h) was 304 mg/dL and the Hb (3 h) was 13.6 g/dL. For the same compound, the Ht (3 h) was 39.3%, the Lym (3 h) was 77.8% and the MCH (3 h) was 21.5 pg. It also gave an MCHC (3 h) of 34.7%, an MCV (3 h) of 61.9 fL and a Mono (3 h) of 2.2%. It also gave a Neu (3 h) of 18.8%, a PT (3 h) of 16.2 s and a Plat (3 h) of 141.3 x10_4/uL. For the same compound, the RBC (3 h) was 635 x10_4/ul, the Ret (3 h) was 5.8% and the WBC (3 h) was 60.9 x10_2/uL. It also gave a KIDNEY_L (3 h) of 0.9 g, a KIDNEY_R (3 h) of 0.9 g and a KIDNEY_TOTAL (3 h) of 1.9 g. For the same compound, the LIVER (3 h) was 9.4 g, the A/G (3 h) was 1.2 and the ALP (3 h) was 1554.2 IU/L. The ALT (3 h) was 41.2 IU/L, the AST (3 h) was 67.2 IU/L and the BUN (3 h) was 11.6 mg/dL. The CRE (3 h) was 0.1 mg/dL, the Ca (3 h) was 10.8 mg/dL and the Cl (3 h) was 105 meq/L. For the same compound, the DBIL (3 h) was 0 mg/dL, the GLC (3 h) was 189.8 mg/dL and the IP (3 h) was 9.8 mg/dL. It also gave a K (3 h) of 3.8 meq/L, an LDH (3 h) of 210 IU/L and a Na (3 h) of 143.2 meq/L. It also gave a PL (3 h) of 130.8 mg/dL, an RALB (3 h) of 3.1 g/dL and a TBIL (3 h) of 0.014 mg/dL. For the same compound, the TC (3 h) was 79.4 mg/dL, the TG (3 h) was 50.2 mg/dL and the TP (3 h) was 5.7 g/dL. The gamma-GTP (3 h) was 1.6 IU/L, the TERMINAL_BW (6 h) was 214.7 g and the APTT (6 h) was 23.7 s. The Bas (6 h) was 0%, the Eos (6 h) was 1% and the Fbg (6 h) was 308.8 mg/dL. For the same compound, the Hb (6 h) was 13.5 g/dL, the Ht (6 h) was 39.4% and the Lym (6 h) was 74.4%. The MCH (6 h) was 21.6 pg, the MCHC (6 h) was 34.3% and the MCV (6 h) was 63 fL. The Mono (6 h) was 2.2%, the Neu (6 h) was 21.4% and the PT (6 h) was 16.1 s. For the same compound, the Plat (6 h) was 126.9 x10_4/uL, the RBC (6 h) was 624.6 x10_4/ul and the Ret (6 h) was 6.1%. For the same compound, the WBC (6 h) was 83.3 x10_2/uL, the KIDNEY_L (6 h) was 1 g and the KIDNEY_R (6 h) was 1 g. It also gave a KIDNEY_TOTAL (6 h) of 2 g, an LIVER (6 h) of 8.8 g and an A/G (6 h) of 1.2. For the same compound, the ALP (6 h) was 1286 IU/L, the ALT (6 h) was 34.2 IU/L and the AST (6 h) was 68.6 IU/L. The BUN (6 h) was 9.8 mg/dL, the CRE (6 h) was 0.2 mg/dL and the Ca (6 h) was 10.5 mg/dL. The Cl (6 h) was 105.8 meq/L, the DBIL (6 h) was 0 mg/dL and the GLC (6 h) was 183.4 mg/dL. For the same compound, the IP (6 h) was 9.9 mg/dL, the K (6 h) was 4.2 meq/L and the LDH (6 h) was 183.2 IU/L. For the same compound, the Na (6 h) was 142 meq/L, the PL (6 h) was 117.2 mg/dL and the RALB (6 h) was 2.9 g/dL. It also gave a TBIL (6 h) of 0.026 mg/dL, a TC (6 h) of 74.4 mg/dL and a TG (6 h) of 28.8 mg/dL. For the same compound, the TP (6 h) was 5.5 g/dL, the gamma-GTP (6 h) was 1.6 IU/L and the TERMINAL_BW (9 h) was 205.7 g. It also gave an APTT (9 h) of 23.8 s, a Bas (9 h) of 0% and an Eos (9 h) of 0.6%. It also gave a Fbg (9 h) of 343 mg/dL, a Hb (9 h) of 13.9 g/dL and a Ht (9 h) of 40%. It also gave a Lym (9 h) of 74.4%, an MCH (9 h) of 21 pg and an MCHC (9 h) of 34.7%. It also gave an MCV (9 h) of 60.5 fL, a Mono (9 h) of 3% and a Neu (9 h) of 21.2%. For the same compound, the PT (9 h) was 15.9 s, the Plat (9 h) was 121.7 x10_4/uL and the RBC (9 h) was 662.2 x10_4/ul. For the same compound, the Ret (9 h) was 5.5%, the WBC (9 h) was 69.4 x10_2/uL and the KIDNEY_L (9 h) was 1 g. The KIDNEY_R (9 h) was 1 g, the KIDNEY_TOTAL (9 h) was 2 g and the LIVER (9 h) was 8.4 g. For the same compound, the A/G (9 h) was 1.1, the ALP (9 h) was 1380.4 IU/L and the ALT (9 h) was 32.6 IU/L. For the same compound, the AST (9 h) was 63 IU/L, the BUN (9 h) was 12.2 mg/dL and the CRE (9 h) was 0.2 mg/dL. It also gave a Ca (9 h) of 10.6 mg/dL, a Cl (9 h) of 105.4 meq/L and a DBIL (9 h) of 0 mg/dL. It also gave a GLC (9 h) of 187 mg/dL, an IP (9 h) of 9.4 mg/dL and a K (9 h) of 3.7 meq/L. The LDH (9 h) was 170.6 IU/L, the Na (9 h) was 142.8 meq/L and the PL (9 h) was 139 mg/dL. The RALB (9 h) was 3 g/dL, the TBIL (9 h) was 0.018 mg/dL and the TC (9 h) was 80.2 mg/dL. The TG (9 h) was 66.2 mg/dL, the TP (9 h) was 5.8 g/dL and the gamma-GTP (9 h) was 1.2 IU/L. For the same compound, the TERMINAL_BW (24 h) was 213.8 g, the APTT (24 h) was 22.4 s and the Bas (24 h) was 0%. It also gave an Eos (24 h) of 0.8%, a Fbg (24 h) of 384.6 mg/dL and a Hb (24 h) of 13.9 g/dL. For the same compound, the Ht (24 h) was 40.7%, the Lym (24 h) was 80.8% and the MCH (24 h) was 21.1 pg. For the same compound, the MCHC (24 h) was 34%, the MCV (24 h) was 61.9 fL and the Mono (24 h) was 2.6%. The Neu (24 h) was 15%, the PT (24 h) was 16.4 s and the Plat (24 h) was 123.2 x10_4/uL. For the same compound, the RBC (24 h) was 659.2 x10_4/ul, the Ret (24 h) was 4.9% and the WBC (24 h) was 85.8 x10_2/uL. The KIDNEY_L (24 h) was 1 g, the KIDNEY_R (24 h) was 1 g and the KIDNEY_TOTAL (24 h) was 2 g. It also gave an LIVER (24 h) of 9.5 g, an A/G (24 h) of 1.1 and an ALP (24 h) of 1544 IU/L. For the same compound, the ALT (24 h) was 41.8 IU/L, the AST (24 h) was 69.8 IU/L and the BUN (24 h) was 25.6 mg/dL. It also gave a CRE (24 h) of 0.2 mg/dL, a Ca (24 h) of 11 mg/dL and a Cl (24 h) of 105.6 meq/L. It also gave a DBIL (24 h) of 0.002 mg/dL, a GLC (24 h) of 190.4 mg/dL and an IP (24 h) of 6.7 mg/dL. For the same compound, the K (24 h) was 4.2 meq/L, the LDH (24 h) was 200.8 IU/L and the Na (24 h) was 142.8 meq/L. For the same compound, the PL (24 h) was 152.2 mg/dL, the RALB (24 h) was 3 g/dL and the TBIL (24 h) was 0.012 mg/dL. It also gave a TC (24 h) of 89.6 mg/dL, a TG (24 h) of 89 mg/dL and a TP (24 h) of 5.7 g/dL. It also gave a gamma-GTP (24 h) of 2.2 IU/L.
